Measured values from PubChem BioAssay AID1259407 (Chemical Carcinogenesis Research Information System (CCRIS), 2018).
Active and inactive are the calls of the source. How the calls were made is not given here.

System: CCRIS mutagenicity, Ames/micronucleus/aberration tests
Test: CCRIS mutagenicity studies
[1] = Test System: AMES SALMONELLA TYPHIMURIUM, Strain/Indicator: TA98, Metabolic Activation: NONE, Method: PREINCUBATION
[2] = Test System: AMES SALMONELLA TYPHIMURIUM, Strain/Indicator: TA100, Metabolic Activation: NONE, Method: PREINCUBATION
[3] = Test System: AMES SALMONELLA TYPHIMURIUM, Strain/Indicator: TA1535, Metabolic Activation: NONE, Method: PREINCUBATION
[4] = Test System: AMES SALMONELLA TYPHIMURIUM, Strain/Indicator: TA1537, Metabolic Activation: NONE, Method: PREINCUBATION
[5] = Test System: AMES SALMONELLA TYPHIMURIUM, Strain/Indicator: TA98, Metabolic Activation: NONE, Method: STANDARD PLATE
[6] = Test System: AMES SALMONELLA TYPHIMURIUM, Strain/Indicator: TA100, Metabolic Activation: NONE, Method: STANDARD PLATE

With `CC(C)C(=O)OCC(C)(C)C(O)C(C)C` (stereo not given) the mutagenic call [1] was “inactive; negative”, the mutagenic call (Test System: AMES SALMONELLA TYPHIMURIUM, Strain/Indicator: TA98, Metabolic Activation: RAT LIVER S-9, PHENOBARBITAL AND BETA-NAPHTHOFLAVONE, Method: PREINCUBATION) was “inactive; negative” and the mutagenic call [2] was “inactive; negative”. For the same compound, the mutagenic call (Test System: AMES SALMONELLA TYPHIMURIUM, Strain/Indicator: TA100, Metabolic Activation: RAT LIVER S-9, PHENOBARBITAL AND BETA-NAPHTHOFLAVONE, Method: PREINCUBATION) was “inactive; negative”, the mutagenic call [3] was “inactive; negative” and the mutagenic call (Test System: AMES SALMONELLA TYPHIMURIUM, Strain/Indicator: TA1535, Metabolic Activation: RAT LIVER S-9, PHENOBARBITAL AND BETA-NAPHTHOFLAVONE, Method: PREINCUBATION) was “inactive; negative”. For the same compound, the mutagenic call [4] was “inactive; negative”, the mutagenic call (Test System: AMES SALMONELLA TYPHIMURIUM, Strain/Indicator: TA1537, Metabolic Activation: RAT LIVER S-9, PHENOBARBITAL AND BETA-NAPHTHOFLAVONE, Method: PREINCUBATION) was “inactive; negative” and the mutagenic call (Test System: E.COLI, Strain/Indicator: WP2UVRA/PKM101, Metabolic Activation: NONE, Method: PREINCUBATION) was “inactive; negative”. For the same compound, the mutagenic call (Test System: E.COLI, Strain/Indicator: WP2UVRA/PKM101, Metabolic Activation: RAT LIVER S-9, PHENOBARBITAL AND BETA-NAPHTHOFLAVONE, Method: PREINCUBATION) was “inactive; negative”.

With `COc1ccc2nc(N)[nH]c2c1` the mutagenic call (Test System: AMES SALMONELLA TYPHIMURIUM, Strain/Indicator: TA98, Metabolic Activation: RAT, LIVER, S-9, AROCLOR 1254, Method: PREINCUBATION) was “inactive; negative” and the mutagenic call (Test System: AMES SALMONELLA TYPHIMURIUM, Strain/Indicator: TA100, Metabolic Activation: RAT, LIVER, S-9, AROCLOR 1254, Method: PREINCUBATION) was “inactive; negative”.

For `c1ccc2c(c1)ccc1ccc3ccsc3c12`, the mutagenic call (Test System: Ames Salmonella typhimurium, Strain/Indicator: TA98, Metabolic Activation: None, Method: Plate incorporation) was “active; positive”, the mutagenic call (Test System: Ames Salmonella typhimurium, Strain/Indicator: TA100, Metabolic Activation: None, Method: Plate incorporation) was “active; positive” and the mutagenic call (Test System: Ames Salmonella typhimurium, Strain/Indicator: TA1040, Metabolic Activation: None, Method: Plate incorporation) was “inactive; negative”.

For `Cc1cc(O)ccc1Cl`, the mutagenic call (Test System: AMES SALMONELLA TYPHIMURIUM, Strain/Indicator: TA97, Metabolic Activation: HAMSTER, LIVER, S-9, AROCLOR 1254 (10%), Method: PREINCUBATION) was “inactive; negative”, the mutagenic call (Test System: AMES SALMONELLA TYPHIMURIUM, Strain/Indicator: TA97, Metabolic Activation: HAMSTER, LIVER, S-9, AROCLOR 1254 (30%), Method: PREINCUBATION) was “inactive; negative” and the mutagenic call (Test System: AMES SALMONELLA TYPHIMURIUM, Strain/Indicator: TA97, Metabolic Activation: NONE, Method: PREINCUBATION) was “inactive; negative”. The mutagenic call (Test System: AMES SALMONELLA TYPHIMURIUM, Strain/Indicator: TA97, Metabolic Activation: NONE, Method: STANDARD PLATE) was “inactive; negative”, the mutagenic call (Test System: AMES SALMONELLA TYPHIMURIUM, Strain/Indicator: TA97, Metabolic Activation: RAT, LIVER, S-9, AROCLOR 1254 (10%), Method: PREINCUBATION) was “inactive; negative” and the mutagenic call (Test System: AMES SALMONELLA TYPHIMURIUM, Strain/Indicator: TA97, Metabolic Activation: RAT, LIVER, S-9, AROCLOR 1254 (30%), Method: PREINCUBATION) was “inactive; negative”. For the same compound, the mutagenic call (Test System: AMES SALMONELLA TYPHIMURIUM, Strain/Indicator: TA97, Metabolic Activation: RAT, LIVER, S-9, AROCLOR 1254, Method: STANDARD PLATE) was “active; positive”, the mutagenic call (Test System: AMES SALMONELLA TYPHIMURIUM, Strain/Indicator: TA98, Metabolic Activation: HAMSTER, LIVER, S-9, AROCLOR 1254 (10%), Method: PREINCUBATION) was “inactive; negative” and the mutagenic call (Test System: AMES SALMONELLA TYPHIMURIUM, Strain/Indicator: TA98, Metabolic Activation: HAMSTER, LIVER, S-9, AROCLOR 1254 (30%), Method: PREINCUBATION) was “inactive; negative”. The mutagenic call [1] was “inactive; negative”, the mutagenic call [5] was “inactive; negative” and the mutagenic call (Test System: AMES SALMONELLA TYPHIMURIUM, Strain/Indicator: TA98, Metabolic Activation: RAT, LIVER, S-9, AROCLOR 1254 (10%), Method: PREINCUBATION) was “inactive; negative”. For the same compound, the mutagenic call (Test System: AMES SALMONELLA TYPHIMURIUM, Strain/Indicator: TA98, Metabolic Activation: RAT, LIVER, S-9, AROCLOR 1254 (30%), Method: PREINCUBATION) was “inactive; negative”, the mutagenic call (Test System: AMES SALMONELLA TYPHIMURIUM, Strain/Indicator: TA98, Metabolic Activation: RAT, LIVER, S-9, AROCLOR 1254, Method: STANDARD PLATE) was “inactive; negative” and the mutagenic call (Test System: AMES SALMONELLA TYPHIMURIUM, Strain/Indicator: TA100, Metabolic Activation: HAMSTER, LIVER, S-9, AROCLOR 1254 (10%), Method: PREINCUBATION) was “inactive; negative”. The mutagenic call (Test System: AMES SALMONELLA TYPHIMURIUM, Strain/Indicator: TA100, Metabolic Activation: HAMSTER, LIVER, S-9, AROCLOR 1254 (30%), Method: PREINCUBATION) was “inactive; negative”, the mutagenic call [2] was “inactive; negative” and the mutagenic call [6] was “inactive; negative”. For the same compound, the mutagenic call (Test System: AMES SALMONELLA TYPHIMURIUM, Strain/Indicator: TA100, Metabolic Activation: RAT, LIVER, S-9, AROCLOR 1254 (10%), Method: PREINCUBATION) was “inactive; negative”, the mutagenic call (Test System: AMES SALMONELLA TYPHIMURIUM, Strain/Indicator: TA100, Metabolic Activation: RAT, LIVER, S-9, AROCLOR 1254 (30%), Method: PREINCUBATION) was “inactive; negative” and the mutagenic call (Test System: AMES SALMONELLA TYPHIMURIUM, Strain/Indicator: TA100, Metabolic Activation: RAT, LIVER, S-9, AROCLOR 1254, Method: STANDARD PLATE) was “inactive; negative”. For the same compound, the mutagenic call (Test System: AMES SALMONELLA TYPHIMURIUM, Strain/Indicator: TA104, Metabolic Activation: NONE, Method: STANDARD PLATE) was “inactive; negative”, the mutagenic call (Test System: AMES SALMONELLA TYPHIMURIUM, Strain/Indicator: TA104, Metabolic Activation: RAT, LIVER, S-9, AROCLOR 1254, Method: STANDARD PLATE) was “inactive; negative” and the mutagenic call (Test System: AMES SALMONELLA TYPHIMURIUM, Strain/Indicator: TA1535, Metabolic Activation: HAMSTER, LIVER, S-9, AROCLOR 1254 (10%), Method: PREINCUBATION) was “inactive; negative”. The mutagenic call (Test System: AMES SALMONELLA TYPHIMURIUM, Strain/Indicator: TA1535, Metabolic Activation: HAMSTER, LIVER, S-9, AROCLOR 1254 (30%), Method: PREINCUBATION) was “inactive; negative”, the mutagenic call [3] was “inactive; negative” and the mutagenic call (Test System: AMES SALMONELLA TYPHIMURIUM, Strain/Indicator: TA1535, Metabolic Activation: NONE, Method: STANDARD PLATE) was “inactive; negative”. For the same compound, the mutagenic call (Test System: AMES SALMONELLA TYPHIMURIUM, Strain/Indicator: TA1535, Metabolic Activation: RAT, LIVER, S-9, AROCLOR 1254 (10%), Method: PREINCUBATION) was “inactive; negative”, the mutagenic call (Test System: AMES SALMONELLA TYPHIMURIUM, Strain/Indicator: TA1535, Metabolic Activation: RAT, LIVER, S-9, AROCLOR 1254 (30%), Method: PREINCUBATION) was “inactive; negative” and the mutagenic call (Test System: AMES SALMONELLA TYPHIMURIUM, Strain/Indicator: TA1535, Metabolic Activation: RAT, LIVER, S-9, AROCLOR 1254, Method: STANDARD PLATE) was “inactive; negative”. The mutagenic call (Test System: AMES SALMONELLA TYPHIMURIUM, Strain/Indicator: TA1537, Metabolic Activation: HAMSTER, LIVER, S-9, AROCLOR 1254 (30%), Method: PREINCUBATION) was “inactive; negative”, the mutagenic call [4] was “inactive; negative” and the mutagenic call (Test System: AMES SALMONELLA TYPHIMURIUM, Strain/Indicator: TA1537, Metabolic Activation: NONE, Method: STANDARD PLATE) was “inactive; negative”. For the same compound, the mutagenic call (Test System: AMES SALMONELLA TYPHIMURIUM, Strain/Indicator: TA1537, Metabolic Activation: RAT, LIVER, S-9, AROCLOR 1254 (30%), Method: PREINCUBATION) was “inactive; negative” and the mutagenic call (Test System: AMES SALMONELLA TYPHIMURIUM, Strain/Indicator: TA1537, Metabolic Activation: RAT, LIVER, S-9, AROCLOR 1254, Method: STANDARD PLATE) was “inactive; negative”.

In the case of `Cc1cc(C)c2c3c(cc4ccccc42)-c2ccccc2-c13`, the mutagenic call (Test System: AMES SALMONELLA TYPHIMURIUM, Strain/Indicator: TA100, Metabolic Activation: RAT, LIVER, S-9, AROCLOR 1254) is reported as “active; positive”.

With `C[C@H]1CC[C@@H]2[C@@H](C)[C@H]3C(C[C@H]4[C@@H]5CC=C6C[C@@H](O[C@@H]7O[C@H](CO)[C@H](O)[C@H](O[C@@H]8O[C@H](CO)[C@@H](O)[C@H](O)[C@H]8O)[C@H]7O[C@@H]7O[C@@H](C)[C@H](O)[C@@H](O)[C@H]7O)CC[C@]6(C)C5CC[C@]34C)N2C1` (stereo not given in full) the mutagenic call [5] was “inactive; negative”, the mutagenic call (Test System: AMES SALMONELLA TYPHIMURIUM, Strain/Indicator: TA98, Metabolic Activation: S-9, Method: STANDARD PLATE) was “inactive; negative” and the mutagenic call [6] was “inactive; negative”. For the same compound, the mutagenic call (Test System: AMES SALMONELLA TYPHIMURIUM, Strain/Indicator: TA100, Metabolic Activation: S-9, Method: STANDARD PLATE) was “inactive; negative”.
